Measurements reported in patent publication US6682740B1 (Yeda Research and Development Co. Ltd., priority 1997, dated 2004).
One block for each molecule: values may come before it. Residues, ends and D or L forms follow the SMILES beside them. No end group written: not given here.

Tests used:
RBL-2H3 cells [1] = assay: Inhibition of antigen-induced (IgE-mediated) β-hexosaminidase secretion by RBL-2H3 cells; assay type: cell-based, rat; conditions: for inhibition of antigen-induced / IgE-dependent degranulation (β-hexosaminidase release): RBL-2H3 cells, result in words
Description: Cells. Rat mucosal mast cells, subline RBL-2H3 (Barsumian et al, 1981) were maintained in Eagle's MEM with Earle's salts supplemented by 10% FCS, 2 mM glutamine and antibiotics in a humidified atmosphere with 7% CO2 at 37° C. Secretory Response of Mast Cells. Mediator secretion by mast cells in response to stimulation by FcεRI clustering was monitored by measuring the activity of the granular enzyme β-hexosaminidase. DNP-specific murine IgE mAb, A2 (3 μl ascites) was added to 10^6 cells in 10 ml MEM and incubated in 96-well plates (100 μl suspension/well) for 2 h. Then, monolayers were washed three times with Tyrode's buffer and stimulated with the antigen (DNP11-BSA). […] Following incubation at 37° C. for 1 h, 20 μl of supernatants were taken and incubated with 50 μl of substrate solution (1.3 mg/ml p-nitrophenyl-N-acetyl-β-D-glucosamine in 0.1 M sodium citrate, pH 4.5) at 37° C. for 45 min. The reaction was terminated by the addition of 150 μl of 0.2 M glycine, pH 10.7, and the optical density of the samples was measured at 405 nm. Results of one representative experiment out of four yielding similar results are presented as percent of the total cell content of the enzyme minus the basal secreted activity. […] Degranulation of the cells was monitored by measuring the activity of the enzyme β-hexosaminidase released into the supernatants after stimulation for 1 h at 37° C. and are presented as net percentages of the cells' total β-hexosaminidase activity.

[2] = tested on: Ovalbumin-Sensitized Guinea Pig Model; assay: Anaphylactic shock in ovalbumin-sensitized guinea pig model (death, respiratory parameters); assay type: in vivo; conditions: except for transient changes in respiratory parameters
[3] = target: T1, FcεRI molecules on RBL-2H3 cells (Rattus norvegicus, UniProt P12371+P13386); assay: Homo-FRET between FITC-IgE and TRITC-IgE on RBL-2H3 cells (flow cytometry); assay type: cell-based; conditions: dE = (E/E[control] − 1) × 100; for dE % (Dose 1): Dose 1: C3a 30 μM, C3a2 110 μM, C3a5 110 μM, C3a9 290 μM, C3a14-P 250 μM; for dE % (Dose 2): Dose 2: C3a 70 μM, C3a2 270 μM, C3a5 270 μM, C3a9 670 μM, C3a14-P 630 μM
T1 construct: targeting FcεRI molecules on RBL-2H3 cells; endogenous in cells; host or cells: RBL-2H3
T1 sequence (P12371 24-245): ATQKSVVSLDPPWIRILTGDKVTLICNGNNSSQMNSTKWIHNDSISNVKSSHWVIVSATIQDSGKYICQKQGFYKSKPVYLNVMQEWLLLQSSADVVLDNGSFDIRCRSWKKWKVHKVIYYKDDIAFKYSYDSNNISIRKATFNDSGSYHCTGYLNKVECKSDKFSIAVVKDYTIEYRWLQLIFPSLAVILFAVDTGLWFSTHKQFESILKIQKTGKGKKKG
T1 sequence (P13386 1-243): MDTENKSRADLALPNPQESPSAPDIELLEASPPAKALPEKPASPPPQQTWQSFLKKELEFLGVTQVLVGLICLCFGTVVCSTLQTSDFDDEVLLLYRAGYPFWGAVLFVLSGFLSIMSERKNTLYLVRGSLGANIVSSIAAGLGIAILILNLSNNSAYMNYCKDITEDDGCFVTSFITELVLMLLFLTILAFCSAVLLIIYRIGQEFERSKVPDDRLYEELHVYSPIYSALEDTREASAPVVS
T1 sequence (P20411 19-86 partner): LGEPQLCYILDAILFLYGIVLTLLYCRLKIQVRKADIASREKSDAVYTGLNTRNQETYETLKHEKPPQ
Description: The Forster-type resonance energy transfer between FITC-IgE and TRITC-IgE targeting FcεRI molecules on RBL-2H3 cells was measured (at 1:1 donor-acceptor ratio) by flow cytometry using a BectonDickinson FACStar Plus flow cytometer.

[4] = tested on: IgE-TRITC on RBL-2H3 cells; assay: FRET between C3a14-P-FITC and IgE-TRITC on RBL-2H3 cells; assay type: binding, rat
BMMC = assay: Binding of FITC-labeled C3a14-P to BMMC (flow cytometry); set-up: species or system mouse; conditions: results not shown
From the text: (§1) This supports proximity between the FcεR (IgE receptor) and the peptide.

RBL-2H3 cells [5] = assay: Binding of FITC-labeled C3a14-P to RBL-2H3 cells; set-up: species or system rat; conditions: for binding to RBL-2H3 cells: various concentrations, measured after washing / flow cytometry
Description: as §1
RBL-2H3 cells were incubated with the peptide at various concentrations and binding was measured after washing the cells.

RBL-2H3 cells [6] = conditions: earlier experiments, cited from earlier work
[7] = target: RBL-2H3 cells (rat mucosal mast cells), binding partner on the cell surface not identified; assay: fluorescence of washed RBL-2H3 cells, peptide dose 510 µM
[8] = target: RBL-2H3 cells (rat mucosal mast cells), binding partner on the cell surface not identified; assay: fluorescence of washed RBL-2H3 cells, peptide dose 250 µM
[9] = target: RBL-2H3 cells (rat mucosal mast cells), binding partner on the cell surface not identified; assay: fluorescence of washed RBL-2H3 cells, peptide dose 630 µM

dE % (Dose 1) [3]: −101%
dE % (Dose 2) [3]: −130%
Molecule: CNYITELRRQHARASHLGLAR [C3a2]
inhibition of antigen-induced / IgE-dependent degranulation (β-hexosaminidase release) (RBL-2H3 cells [1]): inhibited in a dose-dependent manner
secretory response when only the peptide was added (RBL-2H3 cells [1]; peptide alone, same range of concentrations, no antigen): No secretory response

dE % (Dose 1) [3]: −72%
dE % (Dose 2) [3]: −97%
Molecule: DSSNYITR [C3a14-P]

binding to BMMC (BMMC): showed binding
Molecule: C3a14-P-FITC: FITC-labeled peptide C3a14-P (DSSNYITR; also: FITC label, position not given here)
FRET Efficiency E (%) ([4]; cells incubated with amount 20 of C3a14-P-FITC (unit not given)): 33%
FRET Efficiency E (%) ([4]; cells incubated with amount 40 of C3a14-P-FITC (unit not given)): 17%
FRET Efficiency E (%) ([4]; cells incubated with amount 60 of C3a14-P-FITC (unit not given)): 9%
Fluorescence Mean (w/o background) (RBL-2H3 cells [5]; peptide dose 250 μM): 25
Fluorescence Mean (w/o background) (RBL-2H3 cells [5]; peptide dose 510 μM): 74
Fluorescence Mean (w/o background) (RBL-2H3 cells [5]; peptide dose 630 μM): 157
binding to RBL-2H3 cells (RBL-2H3 cells [5]; listed as FITC-15 labeled C3a14-P): showed binding
binding to RBL-2H3 cells (RBL-2H3 cells [5]; listed as FITC-Labeled C3a14-P): specific binding, but no saturation is reached

dE % (Dose 1) [3]: −65%
dE % (Dose 2) [3]: −78%
Molecule: KKVFLDCCNYITELRRQHAR [C3a5]

Fluorescence Mean (w/o background) [7]: 74
Fluorescence Mean (w/o background) [8]: 25
Fluorescence Mean (w/o background) [9]: 157
B2: FITC-labeled C3a14-P (peptide)
peptide: DSSNYITR-NH2
modifications: also: FITC-labeled, position of label not given here

Second part, the molecule before the results:

Molecule: Cys-Cys-Asn-Tyr-Gly (CCNYG; not fully specified; printed: Cys-Cys-Asn-Tyr-Gly) [C3a13]
inhibition of antigen-induced / IgE-dependent degranulation (β-hexosaminidase release) (RBL-2H3 cells [1]): inhibit IgE-dependent degranulation of RBL-2H3 cells to a similar extent as did C3a2

Molecule: CC[C@H](C)[C@H](NC(=O)[C@H](Cc1ccc(O)cc1)NC(=O)[C@H](CC(N)=O)NC(=O)[C@H](CS)NC(=O)[C@H](CS)NC(=O)[C@@H](N)CC(=O)O)C(=O)N[C@H](C(=O)N[C@@H](CCCNC(=N)N)C(N)=O)[C@@H](C)O [C3a9] (H-DCCNYITR-NH2)
effect of the C3a9 aerosol treatment itself on GPs (respiratory parameters) [2]: not affected by the treatment
dE % (Dose 1) [3]: −64%
dE % (Dose 2) [3]: −67%

Molecule: DSSNYIR [C3a11, Asp-Ser-Ser-Asn-Tyr-Ile-Arg]
inhibition of antigen-induced / IgE-dependent degranulation (β-hexosaminidase release) (RBL-2H3 cells [1]): inhibit IgE-dependent degranulation of RBL-2H3 cells to a similar extent as did C3a2

Molecule: SVQLTEKRMDKVGKYPKELR [C3a1, reference compound]
inhibition of antigen-induced / IgE-dependent degranulation (β-hexosaminidase release) (RBL-2H3 cells [1]): had no effect at all

B1: C5a: complement-derived peptide C5a (protein, UniProt P01031 678-751, looked up)
C5a anaphylatoxin: TLQKKIEEIAAKYKHSVVKKCCYDGACVNNDETCEQRAARISLGPRCIKAFTECCVVASQLRANISHKDMQLGR
modifications: C5a anaphylatoxin
secretory response when added alone (RBL-2H3 cells [6]; peptide alone (Erdei et al, 1995)): none of the complement-peptides C3a and C5a triggered the secretory response
inhibition of antigen-induced degranulation of RBL-2H3 (RBL-2H3 cells [6]; range of human C3a concentrations (Erdei et al, 1995)): had no effect at all
